Experimental data: patent US6900239B2, “Tumor chemopotentiation using isocoumarin derivatives” (ILWZ ILEX Products, Inc., priority 2000, dated 2005)

What was measured:
[1] = system: Human umbilical vein endothelial cells (HUVEC); assay: HUVEC colony formation with a constant amount of gamma radiation; format: cell-based
Description: Human umbilical vein endothelial cells (HUVEC) were exposed to a constant amount of gamma radiation in the presence or absence of various concentrations of NM-3 in the culture medium. The numbers of HUVEC colonies that formed following the different treatments were recorded and normalized to the number of colonies formed under control (no NM-3) conditions and the results are shown in FIG. 1. […] For comparison, HUVEC cells were treated with either angiostatin or endostatin, two additional anti-angiogenic proteins.

HT29 (colon tumor cells) = assay: Cell growth (WST-1) in the presence of NM-3; format: cell-based; conditions: Homo sapiens, HT-29, 72 h; 3 days culture with NM-3
Description: (§1) To determine the extent to which NM-3 [2-(8-hydroxy-6-methoxy-1-oxo-1H-2-benzopyran-3-yl) propionic acid] inhibited the proliferation of, or was cytotoxic toward, human tumor cells and normal mouse cells, a variety of cell lines were grown in the presence of NM-3. The human cell lines used were K562 (leukemia cells), HT29 (colon tumor cells) HT1080 (reticulum blast sarcoma cells), and MCF7 (breast tumor cells). The mouse cells used were NIH3T3 cells (fibroblasts). All cell lines were cultured in 96-well plates to a density of 2-5×10^3 cells/well. Culture medium (RPMI 1640 plus 10% FBS) alone or containing NM-3 at one of several concentrations tested was then added to the cultures which were allowed to grow for an additional 3 days. To assess cell growth, 10 μl of WST-1 reagent (a chromogenic substrate for living cells) was added to each well and incubation continued for 3 hrs at 37° C. Absorbance at 450 nm was then determined using a plate reader.

K562 (leukemia cells) = assay: Cell growth (WST-1) in the presence of NM-3; format: cell-based; conditions: Homo sapiens, K562, 72 h; 3 days culture with NM-3
Description: as §1

[2] = system: NIH3T3 cells (fibroblasts); assay: Cell growth (WST-1) in the presence of NM-3; format: cell-based; conditions: Mus musculus, NIH3T3, 72 h; 3 days culture with NM-3
Description: as §1

[3] = system: MDAMB-435 human breast tumor xenografts; assay: MDAMB-435 orthotopic model, NM-3 with paclitaxel, second study (100 mm^3) and delivery routes; format: in vivo, female NCRNU nude mice
Description: In order to determine the effect of the combination of NM-3 with the cytotoxic drug, paclitaxel on human breast tumor xenografts, female NCRNU nude mice were implanted with MDAMB-435 cells into the subaxillary mammary fat pad. NM-3 was administered via intraperitoneal (i.p.) injection daily at doses ranging from 10-100 mg/kg; paclitaxel was administered via i.p. injection every 7 days, starting on day 0, at 10 mg/kg.
In a second study, treatment was initiated when tumor volumes reached 100 mm^3. Paclitaxel was administered at the fixed dose of 12.5 mg/kg, q7d and NM-3 was dosed at 10 and 100 mg/kg, i.p. daily for 28 days.
A comparison was also made between different delivery routes of NM-3 in the combination studies. NM-3 given i.p. daily, bid, and continuously using Alzet mini osmotic pumps in combination with paclitaxel was evaluated for effectiveness in reducing tumor growth.

IMC carcinoma = assay: Combination with cyclophosphamide, tumor weight; format: in vivo, CDF1 mice; conditions: for Solid Weight mg ± S.D.: day 42
Description: To determine the effect on IMC carcinoma growth of NM-3 treatment combined with simultaneous cyclophosphamide treatment, IMC carcinoma cells (1×10^6 cells per mouse) were subcutaneously transplanted into CDF1 mice (female, 10 weeks old) in the inguinal area. NM-3 which was dissolved using 5% DMSO+Tween80, was continuously orally administered from day 1 to day 41 after transplantation except on day 14, when cyclophosphamide (300 mg/kg) was injected intravenously.

U266 cells = assay: Cell viability by MTT assay; format: cell-based, human
Description: (§2) The human multiple myeloma cell line MM1.S was maintained in RPMI1640 medium supplemented with 10% fetal bovine serum, 100 units/ml penicillin, and 100 μg/ml streptomycin at 37° C. in an atmosphere of 5% CO2 in air. Cells (3×10^4 cells/well) were seeded in 96 well-plates and incubated with increasing concentrations of DEX or DOX in the presence or absence of NM-3. NM-3 was added at concentrations of 0, 50, 100 and 200 μg/ml 2 hours before the addition of DOX or DEX. After 24 hours of DOX or DEX exposure, 10 μl of MTT reagent (Roche Molecular Biochemicals, final concentration 0.5 mg/ml) was added to each well and allowed to incubate for 4 hours. After the incubation, 100 μl of solubilization solution (10% sodium dodecyl sulfate in 0.01M HCl) was added to each well and allowed to incubate overnight. Optical density at 565 nm was determined using a spectrophotometer (Molecular Devices Corp.).
(§3) The effects of NM-3 in combination with dexamethasone on the viability of RPM18662 and U266 human multiple meyeloma cells were investigated. Experimental conditions were as described in Example 11, with the exception that cells were seeded at 6×10^3 cells/well and the cells were incubated with the appropriate concentrations of NM-3 and DEX for either 48 or 72 hours prior to addition of the MTT reagent.

RPMI8662 cells = assay: Cell viability by MTT assay; format: cell-based, human
Description: as §2, §3

[4] = system: Lewis Lung carcinoma (LLC) tumors; assay: Radiation sensitivity of Lewis Lung carcinoma in vivo; parameters: species or system C57BL/6 female mice
Description: To determine whether NM-3 treatment increases the radiation sensitivity of tumors in vivo, Lewis Lung carcinoma (LLC) tumors were established in C57BL/6 female mice (Frederick Cancer Research Institute) prior to NM-3 and radiation treatment. LLC cells (1×10^6 cells) were injected in the right hind limb of the mice and tumors were allowed to grow a volume of 250-350 mm^3. Tumor volumes were determined by direct measurements with calipers calculated by the formula: V=length×width×depth/2. Mice were then divided into groups and treated with NM-3 (100 mg/kg total) or PBS for two days before beginning radiation therapy. Animals then received NM-3 (25 mg/kg/day, i.p.) or PBS approximately four hours prior to radiation treatment. Tumors were irradiated using a GE Maxitron X-ray generator operating at 150 kV, 30 mA, using a 1 mm aluminum filter at a dose rate of 188 cGy/minute. Mice were shielded with lead except for the tumor-bearing area in the hind limb. Treatments and tumor measurements continued for a period of 17 days (see FIG. 4). […] Whereas control tumors reached 8 initial tumor volumes (Vo) after 8 days, X-ray treated tumors required 16 days to grow to this size. […] For comparison, data are plotted with two additional anti-angiogenic drugs, antiostatin and endostatin (see FIGS. 3B and 3C).

[5] = NM-3 1 mg/kg p.o. days 1-13, 15-41 alone
[6] = NM-3 5 mg/kg p.o. days 1-13, 15-41 alone
[7] = NM-3 alone, 50 and 100 μg/ml, 72 hours preincubation
[8] = NM-3 alone, 48 hour preincubation

`COc1cc(O)c2c(=O)oc(C(C)C(=O)O)cc2c1` (stereo not shown) [NM-3, 2-(8-hydroxy-6-methoxy-1-oxo-1H-2-benzopyran-3-yl) propionic acid] was tested, and the “ED50, decrease of HUVEC colony formation” value [1] was “approximately 1 μg/ml”, the IC50 (HT29 (colon tumor cells)) was greater than 300 mg/L and the IC50 (K562 (leukemia cells)) was 250 mg/L. For the same molecule, the IC50 [2] was greater than 100 mg/L, the “% Tumor Growth Inhibition” value ([3]; NM-3 100 mg/kg I.P. daily alone) was 26.67% and the “Final Tumor Ratio (V/Vo) +/− SEM” value ([3]; NM-3 100 mg/kg I.P. daily alone, 28 days) was 4.70 ± 0.56 V/Vo. The “Mice with Complete Shrinkage” value ([3]; NM-3 100 mg/kg I.P. daily alone, n 9) was 0, the Tumor growth inhibition ([3]; NM-3 alone, daily dose of 10 mg/kg) was “no significant tumor growth inhibition” and the “Inhibition (%)” value (IMC carcinoma; [5]) was 10.2%. The “Solid Weight mg ± S.D.” value (IMC carcinoma; [5]) was 11,093.0 ± 2040.6 mg, the “Inhibition (%)” value (IMC carcinoma; [6]) was 12.6% and the “Solid Weight mg ± S.D.” value (IMC carcinoma; [6]) was 10792.4 ± 2979.7 mg. The “Tumor weight versus control” value (IMC carcinoma; NM-3 alone) was “did not significantly reduce tumor weight”, the “Potentiation of DEX-induced cell death” value (U266 cells; 48 or 72 hours) was “potentiated DEX-induced cell death” and the “Decrease in cell viability” value (U266 cells; [7]) was “less evident”. For the same molecule, the Cell viability (U266 cells; [8]) was “dose dependent decrease in cell viability”, the “Potentiation of DEX-induced cell death” value (RPMI8662 cells; 48 or 72 hours) was “potentiated DEX-induced cell death” and the “Decrease in cell viability” value (RPMI8662 cells; [7]) was “less evident”. For the same molecule, the Cell viability (RPMI8662 cells; [8]) was “dose dependent decrease in cell viability”, the Further tumor growth ([4]; NM-3 25 mg/kg/day i.p. added to radiotherapy, 17 days) was “markedly reduced” and the Tumor growth ([4]; NM-3 alone) was “did not inhibit tumor growth at all”. For the same molecule, the “Radiation sensitization of tumors” value ([4]; combined with X-ray treatment) was “dramatically enhances the sensitivity”.
